In US8513297B2, “Biaromatic compounds that modulate PPARy type receptors and cosmetic/pharmaceutical compositions comprised thereof” (Galderma Research & Development, priority 2004, dated 2013) one finds Kd data, which are given here for 11 molecules.

Where a name gives a salt, the structure may show the parent alone.

What all share (type): cell-based
One assay has as its target T1, PPARγ (Homo sapiens, UniProt P37231).
T1 construct: Either way it is a handle and not a second protein
T1 sequence (P37231 238-505 limits assumed): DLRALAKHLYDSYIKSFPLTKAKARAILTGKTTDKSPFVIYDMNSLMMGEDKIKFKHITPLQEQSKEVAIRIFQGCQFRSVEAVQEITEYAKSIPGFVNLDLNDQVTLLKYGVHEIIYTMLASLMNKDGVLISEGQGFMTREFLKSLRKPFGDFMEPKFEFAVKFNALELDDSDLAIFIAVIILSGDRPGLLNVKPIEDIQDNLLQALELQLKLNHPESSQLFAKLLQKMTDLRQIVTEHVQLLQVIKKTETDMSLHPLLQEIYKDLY
As to the kind of experiment: Crossover-curve PPAR transactivation test, PPARγ. The conditions noted are these: HeLN cells stably transfected with Gal-hPPARγ and luciferase reporter; Schild regression against reference agonist; n.a. means not active; read-out: PPARγ Kd app. As to the method:
(§1) The activation of PPAR receptors with an agonist (activator) in HeLN cells leads to the expression of a reporter gene, luciferase, which, in the presence of a substrate, generates light. The modulation of the PPAR receptors is measured by quantifying the luminescence produced after incubating the cells in the presence of a reference agonist. The ligands displace the agonist from its site. The measurement of the activity is performed by quantifying the light produced. This measurement makes it possible to determine the modulatory activity of the compounds according to the invention by determining the constant that is the affinity of the molecule for the PPAR receptor. Since this value can fluctuate depending on the basal activity and the expression of the receptor, it is referred to as Kd apparent (KdApp in nM).
(§2) To determine this constant, “crossover curves” of the test product against a reference agonist are performed in a 96-well plate: 10 concentrations of the test product plus a concentration 0 are arranged in a line, and 7 concentrations of the agonist plus a concentration 0 are arranged in a column. This is 88 measurement points for 1 product and 1 receptor. The remaining 8 wells are used for repeatability controls.
(§3) Measurements are also taken for total agonist controls with the same products.
(§4) The HeLN cell lines used are stable transfectants containing the plasmids ERE-βGlob-Luc-SV-Neo (reporter gene) and PPAR (α, δ, γ) Gal-hPPAR. These cells are inoculated into 96-well plates at a rate of 10 000 cells per well in 100 μl of DMEM medium without phenol red and supplemented with 10% of defatted calf serum. The plates are then incubated at 37° C. and 7% CO2 for 16 hours.
(§5) The various dilutions of the test products and of the reference ligand are added at a rate of 5 μl per well. The plates are then incubated for 18 hours at 37° C. and 7% CO2. The culture medium is removed by turning over and 100 μl of a 1:1 PBS/luciferine mixture are added to each well. After 5 minutes, the plates are read by the luminescence detector.
For orientation: In a reporter assay the amount or activity of a reporter protein is the signal.

In a further assay the target is T2, PPARα (Homo sapiens, UniProt Q07869).
T2 construct: Either way it is a handle and not a second protein
T2 sequence (Q07869 200-468 limits assumed): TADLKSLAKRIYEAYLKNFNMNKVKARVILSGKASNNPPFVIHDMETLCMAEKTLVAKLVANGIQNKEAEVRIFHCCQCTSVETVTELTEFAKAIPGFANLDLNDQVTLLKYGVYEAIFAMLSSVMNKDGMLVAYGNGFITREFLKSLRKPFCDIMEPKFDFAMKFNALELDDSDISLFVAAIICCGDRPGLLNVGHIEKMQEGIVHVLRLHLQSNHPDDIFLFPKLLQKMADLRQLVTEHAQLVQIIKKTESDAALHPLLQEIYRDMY
Briefly: Crossover-curve PPAR transactivation test, PPARα. The conditions noted are these: HeLN cells stably transfected with Gal-hPPARα and luciferase reporter; Schild regression against reference agonist; n.a. means not active; read-out: PPARα Kd app. As to the method: as §1, §2, §3, §4, §5

The target of a further assay is T3, PPARδ (Homo sapiens, UniProt Q03181).
T3 construct: Either way it is a handle and not a second protein
T3 sequence (Q03181 211-441 limits assumed): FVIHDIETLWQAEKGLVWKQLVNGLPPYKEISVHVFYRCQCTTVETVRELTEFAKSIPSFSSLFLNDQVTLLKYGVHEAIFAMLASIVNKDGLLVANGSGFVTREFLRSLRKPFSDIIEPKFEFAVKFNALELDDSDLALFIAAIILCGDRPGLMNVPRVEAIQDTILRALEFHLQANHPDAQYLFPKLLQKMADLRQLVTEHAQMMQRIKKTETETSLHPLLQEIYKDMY
As to the kind of experiment: Crossover-curve PPAR transactivation test, PPARδ. The following applies: HeLN cells stably transfected with Gal-hPPARδ and luciferase reporter; Schild regression against reference agonist; n.a. means not active; read-out: PPARδ Kd app. As to the method:
as §1
To determine this constant, “crossover curves” of the test product against a reference agonist are performed in a 96-well plate: 10 concentrations of the test product plus a concentration 0 are arranged in a line, and 7 concentrations of the agonist plus a concentration 0 are arranged in a column. This is 88 measurement points for 1 product and 1 receptor. […]
The various dilutions of the test products and of the reference ligand are added at a rate of 5 μl per well. […] After 5 minutes, the plates are read by the luminescence detector.

`CCCCCCCC(=O)N(C)Cc1cccc(-c2ccc(/C=C/C(=O)O)s2)c1` [Example 1, 3-(5-{3-[(methyloctanoylamino)methyl]phenyl}thiophen-2-yl)acrylic acid]: at PPARγ, the Kd came to 1 µM. In the case of `CCCCCCCNC(=O)N(C)c1ccnc(-c2ccc(CCC(=O)O)cc2)c1` [Example 8, 2-[4-(2-carboxyethyl)phenyl]-4-(3-heptyl-1-methylureido)pyridinium acetate], the Kd on PPARγ was determined as 1 µM. Turning to `CCCCCNC(=O)N(C)c1cccc(-c2ccc(CCC(=O)O)cc2OCCCC)n1` [Example 11, 2-[2-butoxy-4-(2-carboxyethyl)phenyl]-6-(1-methyl-3-pentylureido)pyridinium hydrochloride], the Kd came to 2 µM at PPARα and 0.12 µM at PPARγ. As for `CCCCCCCNC(=O)N(C)c1cccc(-c2ccc(CCC(=O)O)cn2)c1` [Example 7, 3-{6-[3-(3-heptyl-1-methylureido)phenyl]pyrid-3-yl}propanoic acid], the Kd at PPARγ is 0.06 µM.

On to `CCCCCCCNC(=O)N(C)c1cccc(-c2ccc(CCC(=O)O)cc2OCC)n1` [Example 13, 2-[4-(2-carboxyethyl)-2-ethoxyphenyl]-6-(3-heptyl-1-methylureido)pyridinium hydrochloride], for which the Kd on PPARα was found to be 4 µM; at PPARγ, 0.12 µM; at PPARδ, 8 µM.

Regarding `CCCCCCCNC(=O)N(C)c1cccc(-c2ccc(CCC(=O)O)cc2)n1` [Example 6, 3-{4-[6-(3-heptyl-1-methylureido)pyrid-2-yl]phenyl}propanoic acid], the Kd stood at 0.25 µM on PPARγ and 4 µM on PPARδ. Regarding `CCCCCCCNC(=O)N(C)c1cccc(-c2ccc(CCC(=O)O)cc2OCCCC)n1` [Example 12, 2-[2-butoxy-4-(2-carboxyethyl)phenyl]-6-(1-methyl-3-heptylureido)pyridinium hydrochloride], the Kd on PPARα stood at 4 µM; on PPARγ, 0.015 µM. Regarding `CCCCCCCC(=O)N(C)Cc1cc(-c2ccc(CCC(=O)O)cc2OCCCC)cs1` [Example 14, 3-(3-butoxy-4-{5-[(methyloctanoylamino)methyl]thiophen-3-yl}phenyl)propanoic acid], the Kd at PPARγ turned out to be 0.002 µM. Consider `CCCCOc1cc(CCC(=O)O)ccc1-c1csc(CN(C)C(=O)c2cccc(OC)c2)c1` [Example 16, 3-[3-butoxy-4-(5-{[(3-methoxybenzoyl)methylamino]methyl}thiophen-3-yl)phenyl]propanoic acid], for which the Kd at PPARγ was determined as 0.03 µM. On the same count and under the same terms, to `CCCCCCCC(=O)N(C)Cc1cccc(-c2ccc(CCC(=O)O)s2)c1` [Example 2, 3-(5-{3-[(methyloctanoylamino)methyl]phenyl}thiophen-2-yl)propanoic acid] belongs 0.5 µM. Same read-out and setting: to `CCCCOc1cc(CCC(=O)O)ccc1-c1csc(CN(C)C(=O)c2ccc(OC)cc2)c1` [Example 15, 3-[3-butoxy-4-(5-{[(4-methoxybenzoyl)methylamino]methyl}thiophen-3-yl)phenyl]propanoic acid] belongs 0.03 µM.
